Biological target: MAGL (recombinant wild-type) (Homo sapiens (Human), UniProt Q99685)
Assay: 4-NPA assay: MAGL inhibitory activity by hydrolysis of 4-nitrophenylacetate (absorbance at 405 nm)
Type: biochemical
Settings: measured in 4-NPA assay (footnote [a]); 1 nM MAGL, 300 μM 4-nitrophenylacetate
Description: This assay is hereinafter abbreviated “4-NPA assay”.
The plate was shaked for 1 min at 2000 rpm (Variomag Teleshake) and then incubated for 15 min at RT. […] The final concentrations in the assay were 1 nM MAGL and 300 μM 4-Nitrophenylacetate. […] A second measurement was then done after incubation for 80 min at RT. From the two measurements, the slope was calculated by subtracting the first from the second measurement.

MAGL (recombinant wild-type), sequence (Q99685 whole entry, species assumed): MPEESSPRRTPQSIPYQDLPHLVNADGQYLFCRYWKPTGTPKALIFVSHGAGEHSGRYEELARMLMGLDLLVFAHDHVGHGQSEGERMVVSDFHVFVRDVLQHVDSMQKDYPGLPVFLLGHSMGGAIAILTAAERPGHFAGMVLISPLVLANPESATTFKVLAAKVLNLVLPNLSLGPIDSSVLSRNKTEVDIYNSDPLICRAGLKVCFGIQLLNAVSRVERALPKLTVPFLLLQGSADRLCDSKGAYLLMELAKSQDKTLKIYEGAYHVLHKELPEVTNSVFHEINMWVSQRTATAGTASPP

| Structure (SMILES) | IC50 [µM] |
| --- | --- |
| O=C1CO[C@H]2CCN(C(=O)N3CCC(Oc4ccc(C(F)(F)F)cc4)CC3)C[C@H]2N1 [Example 12, (+)- or (−)-(4aR,8aS)-6-(4-(4-(Trifluoromethyl)phenoxy)piperidine-1-carbonyl)hexahydro-2H-pyrido[4,3-b][1,4]oxazin-3(4H)-one] | 0.077 |
| O=C1CO[C@@H]2CCN(C(=O)N3CCC(Cc4ccc(C(F)(F)F)cc4)CC3)C[C@@H]2N1 [Example 20] | 1.8 |
| O=C1CO[C@@H]2CCN(C(=O)N3CCC(Cn4cc(C(F)(F)F)cn4)CC3)C[C@@H]2N1 (stereo in doubt) [Example 26, (4aS,8aR)-6-(4-((4-(Trifluoromethyl)-1H-pyrazol-1-yl)methyl)piperidine-1-carbonyl)hexahydro-2H-pyrido[4,3-b][1,4]oxazin-3(4H)-one] | 0.684 |
| O=C1CO[C@H]2CCN(C(=O)N3CCC(Cc4ccc(C(F)(F)F)cn4)CC3)C[C@H]2N1 [Example 25] | 0.452 |
| CC(C)(C)c1csc(CC2CCN(C(=O)N3CC[C@H]4OCC(=O)N[C@H]4C3)CC2)n1 [Example 5] | 1.3 |
| CC(C)(C)c1csc(CC2CCN(C(=O)N3CC[C@@H]4OCC(=O)N[C@@H]4C3)CC2)n1 [Example 1, (+)-(4aR,8aS)-6-(4-((4-(tert-Butyl)thiazol-2-yl)methyl)piperidine-1-carbonyl)hexahydro-2H-pyrido[4,3-b][1,4]oxazin-3(4H)-one] | 0.04 |
| O=C1CO[C@@H]2CCN(C(=O)N3CCC(COc4ccc(F)cc4Cl)CC3)C[C@@H]2N1 [Example 23] | 0.856 |
| O=C1CO[C@H]2CCN(C(=O)N3CCC(COc4ccccc4)CC3)C[C@H]2N1 [Example 15] | 0.19 |
| O=C1CO[C@H]2CCN(C(=O)N3CCC(Cc4nc5c(s4)CCC5)CC3)C[C@H]2N1 [Example 16] | 0.208 |
| O=C1CO[C@H]2CCN(C(=O)N3CCC(Cc4ccc(C(F)(F)F)cc4)CC3)C[C@H]2N1 [Example 8] | 0.013 |
| CC(C)(C)c1coc(CC2CCN(C(=O)N3CC[C@@H]4OCC(=O)N[C@@H]4C3)CC2)n1 [Example 4] | 0.092 |
| O=C1CO[C@H]2CCN(C(=O)N3CCC(Cc4ccc(Cl)cc4)CC3)C[C@H]2N1 [Example 10] | 0.039 |
| O=C1CO[C@H]2CCN(C(=O)N3CCC(Oc4ccc(C(F)(F)F)cc4)CC3)C[C@H]2N1 [Example 13] | 0.087 |
| N#Cc1ccc(CC2CCN(C(=O)N3CC[C@@H]4OCC(=O)N[C@@H]4C3)CC2)cc1 [Example 34, (+)- or (−)-4-[[1-[(4aR,8aS)-3-Oxo-4,4a,5,7,8,8a-hexahydropyrido[4,3-b][1,4]oxazine-6-carbonyl]-4-piperidyl]methyl]benzonitrile] | 0.438 |
| O=C1CO[C@H]2CCN(C(=O)N3CC(OCc4ccc(C(F)(F)F)cc4F)C3)C[C@H]2N1 [Example 27] | 0.007 |

Further lines, results first:

| IC50 [µM] | Structure (SMILES) |
| --- | --- |
| 0.288 | CC1(COc2ccc(F)cc2Cl)CCN(C(=O)N2CC[C@H]3OCC(=O)N[C@H]3C2)CC1 [Example 48] |
| 0.002 | O=C1CO[C@H]2CCN(C(=O)N3CC(OCc4ccc(C(F)(F)F)cc4Cl)C3)C[C@H]2N1 [Example 75] |
| 0.351 | CC(C)(C)c1cnn(CC2CCN(C(=O)N3CC[C@@H]4OCC(=O)N[C@@H]4C3)CC2)c1 [Example 66] |
| 0.008 | O=C1CO[C@H]2CCN(C(=O)N3CC(OCc4ccc(C(F)(F)F)cc4)C3)C[C@H]2N1 [Example 76] |
| 0.16 | CC(C)(C)c1cnc(CC2CCN(C(=O)N3CC[C@@H]4OCC(=O)N[C@@H]4C3)CC2)o1 [Example 38] |
| 2.18 | O=C1CO[C@H]2CCN(C(=O)N3CC(OCc4ccc(C(F)(F)F)cc4F)(C(F)(F)F)C3)C[C@H]2N1 [Example 110] |
| 0.004 | O=C1CO[C@H]2CCN(C(=O)N3CC(OCc4ccc(Cl)cc4C(F)(F)F)C3)C[C@H]2N1 [Example 116] |
| 0.009 | O=C1CO[C@H]2CCN(C(=O)N3CC(COc4ccc(C(F)(F)F)cc4Cl)C3)C[C@H]2N1 [Example 62] |
| 0.529 | O=C1CO[C@H]2CCN(C(=O)N3CCC(COc4ccc(C(F)(F)F)nc4)CC3)C[C@H]2N1 [Example 43, (4aR,8aS)-6-(4-(((6-(trifluoromethyl)pyridin-3-yl)oxy)methyl)piperidine-1-carbonyl)hexahydro-2H-pyrido[4,3-b][1,4]oxazin-3(4H)-one] |
| 0.012 | N#Cc1ccc(OCC2CCN(C(=O)N3CC[C@@H]4OCC(=O)N[C@@H]4C3)CC2)c(Cl)c1 [Example 59] |
| 0.85 | O=C1CO[C@@H]2CCN(C(=O)N3CCC(COc4ccc(OC(F)(F)F)cc4Cl)CC3)C[C@@H]2N1 [Example 45] |
| 0.012 | O=C1CO[C@H]2CCN(C(=O)N3CC(OCc4cc(C(F)(F)F)c(F)cc4F)C3)C[C@H]2N1 [Example 112] |
| 1.2 | O=C1CO[C@@H]2CCN(C(=O)N3CCC(COc4ccc(C(F)(F)F)nc4)CC3)C[C@@H]2N1 [Example 42, (4aS,8aR)-6-(4-(((6-(Trifluoromethyl)pyridin-3-yl)oxy)methyl)piperidine-1-carbonyl)hexahydro-2H-pyrido[4,3-b][1,4]oxazin-3(4H)-one] |
| 0.042 | O=C1CO[C@H]2CCN(C(=O)N3CCN(Cc4ccc(C(F)(F)F)cc4N4CCCC4)CC3)C[C@H]2N1 [Example 56] |
| 0.116 | COc1ccc(OCC2CCN(C(=O)N3CC[C@@H]4OCC(=O)N[C@@H]4C3)CC2)c(F)c1 [Example 39, (4aR,8aS)-6-[4-[(2-Fluoro-4-methoxyphenoxy)methyl]piperidine-1-carbonyl]-4,4a,5,7,8,8a-hexahydropyrido[4,3-b][1,4]oxazin-3-one] |
| 0.006 | O=C1CO[C@H]2CCN(C(=O)N3CCC(Cc4ccc(C(F)(F)F)cc4N4CCCC4)CC3)C[C@H]2N1 [Example 53] |
| 0.285 | CC1C(OCc2ccc(C(F)(F)F)cc2)CN1C(=O)N1CC[C@@H]2OCC(=O)N[C@@H]2C1 (stereo partly drawn) [Example 105, (4aR,8aS)-6-[2-Methyl-3-[[4-(trifluoromethyl)phenyl]methoxy]azetidine-1-carbonyl]-4,4a,5,7,8,8a-hexahydropyrido[4,3-b][1,4]oxazin-3-one] |
| 0.223 | O=C1CO[C@H]2CCN(C(=O)N3CC(F)(COc4ccc(F)cc4Cl)C3)C[C@H]2N1 [Example 109] |
| 0.005 | O=C1CO[C@H]2CCN(C(=O)N3CC(OCc4cc(C(F)(F)F)ccc4F)C3)C[C@H]2N1 [Example 113] |
| 0.012 | O=C1CO[C@H]2CCN(C(=O)N3CCC(Oc4ccc(C(F)(F)F)cc4Cl)CC3)C[C@H]2N1 [Example 40] |

— patent US11802133B2, “Heterocyclic compounds as monoacylglycerol lipase inhibitors” (Hoffmann-La Roche Inc., priority 2018, dated 2023)
